According to article PMC11117252, “The MraY Inhibitor Muraymycin D2 and Its Derivatives Induce Enlarged Cells in Obligate Intracellular Chlamydia and Wolbachia and Break the Persistence Phenotype in Chlamydia” (Antibiotics, 2024):
Values after ≈ are worked out from the molar mass of the structure shown. Read-outs that look alike come from different tables or passages of the source.

What was measured:
C. trachomatis D/UW-3/CX [1] = assay: Anti-chlamydial activity (MIC) in C. trachomatis-infected HEp-2 cells, fluorescence microscopy; type: cell-based; conditions: for MIC: C. trachomatis D/UW-3/CX-infected HEp-2 cells, compound added at 2 hpi, fluorescence microscopy at 30 hpi, MIC = lowest concentration with >90% reduction in inclusions or inducing enlarged aberrant cells, three experiments; for Effect on C. trachomatis infection (phenotype): added at 2 hpi, read at 30 hpi, HEp-2 cells
Procedure: First, we tested the lead compound MRY D2 (Figure 1a) and seven muraymycin derivatives (MRH; described in [47, 48]) on C. trachomatis in cell culture experiments. To this end, C. trachomatis D/UW-3/CX-infected HEp-2 cells were treated with the compounds at 2 h post infection (hpi; Figure 1b), which represents an early stage of the chlamydial developmental cycle before bacterial replication. Inhibitors were applied over a range of concentrations that were not detrimental to HEp-2 host cells in resazurin-based viability assays (Table S1), and the effects were visualized by fluorescence microscopy (Figure 1c and Figure S2) at 30 hpi. The minimal inhibitory concentration (MIC) for Chlamydia was defined as either the lowest concentration leading to a >90% reduction in inclusions or, for aberrance-inducing compounds, the concentration leading to abnormal chlamydial cell phenotypes, i.e., enlarged cells after treatment with PEN G [39].
(§1) The effect of the compounds on active C. trachomatis infections was analyzed by fluorescence microscopy. […] The cells were washed once with medium and infected with freshly prepared C. trachomatis D/UW-3/CX EB-containing suspension. After 2 h incubation, the EB suspension was aspirated, and the cells were washed twice with medium. The effect of compounds on an infection was determined by application of the compound at 2 hpi or 12 hpi in a serial dilution from 1 µg/mL to 64 µg/mL (MRH-25, -76, -92, cCPZ) or from 1 µg/mL to 128 µg/mL (MRY D2, MRH-22, -23, -38, and -82). Negative controls were conducted with DMSO as a vehicle control. For Chlamydia, the MIC is defined as a >90% reduction in inclusions. The MIC of compounds inducing the formation of enlarged, aberrant bodies is the lowest concentration that induces the abnormal inclusion morphology.
(§2) Infected HEp-2 cells were fixed and permeabilized with 100% (v/v) ice-cold methanol at 30 hpi and washed once with 1 × phosphate-buffered saline (PBS, 4 mM KH2PO4 pH 7.4, 16 mM Na2HPO4, 115 mM NaCl). The Pathfinder Chlamydia Culture Confirmation System (Bio-Rad Laboratories, Hercules, CA) was used to stain the C. trachomatis lipopolysaccharide and host cell cytoplasm by incubation for 30 min at 37 °C. Genomic DNA was stained with 10 µg/mL DAPI (Thermo Fisher Scientific) for 1 min and then washed twice with PBS for 10 min at 4 °C. Fluorescence microscopy was performed with an Axio observer Z.1 using the Zen2 software (Carl Zeiss, Oberkochen, Germany).

C. pneumoniae MraY = assay: Inhibition of C. pneumoniae MraY in vitro (lipid I formation, TLC); type: biochemical; conditions: 0.5 µM compound (range tested 0.05-0.5 µM), 2 µg MraYCpn, C55-P, UDP-MurNAc-pentapeptide, 90 min, duplicate
Description: (a) C. pneumoniae and Wolbachia spp. MraY use the precursor molecules undecaprenyl-phosphate (C55-P) and uridine diphosphate (UDP)-N-acetylmuramoyl(MurNAc)-pentapeptide to form lipid I, which is glycosylated with N-acetylglucosamine (GlcNAc) by MurG, yielding lipid II. IM: inner membrane; UMP: uridine monophosphate; mDAP: meso-diaminopimelic acid; C55-P: undecaprenyl-phosphate. […] Reaction products were extracted, separated via thin-layer chromatography, and stained. Formation of lipid I by MraYCpn was inhibited by both tested inhibitors.
C. pneumoniae MraY was heterologously overexpressed in E. coli, purified via His-tag affinity chromatography, and inhibition of the enzymatic activity was analyzed by visualizing the reaction products via thin-layer chromatography.
Inhibition assays with MraYCpn and the compounds were performed based on the activity assays for MraYCpn as previously described, with minor modifications, in a final volume of 50 µL. First, 2.5 nmol C55-P (Larodan, Solna, Sweden) was dissolved in 0.43% (v/v) Triton X-100 by vortexing for 1 min. Then, 75 mM Tris-HCl (pH 7.5), 6 mM MgCl2, 10% (v/v) DMSO, and UDP-MurNAc-pentapeptide obtained from Bacillus cereus DSM2302 (based on) were added. Compounds were applied at the indicated concentrations and incubated with 2 µg MraYCpn at 30 °C for 90 min. […]

C. trachomatis D/UW-3/CX [2] = assay: Effect of MRY D2 on active (mid-stage) and penicillin G-induced persistent C. trachomatis infections, inclusion counts; type: cell-based; conditions: read at 30 hpi
Procedure: Figure 6 Effect of MRY D2 on PEN G-induced persistent C. trachomatis infections. (a) HEp-2 cells infected with C. trachomatis D/UW-3/CX were treated with 128 µg/mL MRY D2 at 2 hpi or 12 hpi to analyze the effect on active infection. Additionally, 128 µg/mL MRY D2 and 100 U/mL PEN G were added simultaneously at 2 hpi. To assess the effect on a PEN G-induced persistent infection, 100 U/mL PEN G was added at 2 hpi, and 128 µg/mL MRY D2 was added at 12 hpi. Anti-chlamydial activity was analyzed at 30 hpi by fluorescence microscopy. (b) Eukaryotic host cell cytoplasm from representative images was labelled with Evans Blue (red), genomic DNA with DAPI (blue), and chlamydial lipopolysaccharide with fluorescein (green). Scale bar: 10 µm. (c) Mean ± SD of inclusions/field and (d) the relative number of inclusions filled with either elementary bodies (EBs)/reticulate bodies (RBs), ABs, or a mixed phenotype, analyzed from three images. An unpaired, two-tailed Student’s t-test was performed against the respective vehicle control. ns: not significant, p > 0.05; *: p = 0.05 to 0.01; **: p = 0.01 to 0.001; ****: p < 0.0001. In comparison with the DMSO vehicle control, the addition of PEN G at 2 hpi induced persistence, characterized by aberrant bodies. Early application of MRY D2 at 2 hpi (p < 0.0001) and simultaneous application with PEN G at 2 hpi induced the formation of ABs. […] This was also visible if persistence was induced by PEN G at 2 hpi followed by MRY D2 addition at 12 hpi (p = 0.0037).
as §1
The effect of MRY D2 on penicillin-induced persistent C. trachomatis infections was analyzed as described for the active infection, with the following modifications. After removal of the EB-containing lysate at 2 hpi and washing of the cells, 100 U/mL PEN G was added to induce a persistent infection. MRY D2 was added at 12 hpi in a concentration range of 128 µg/mL to 1 µg/mL by serial dilution. In another approach, MRY D2 was applied simultaneously with PEN G at 2 hpi to determine if early administration influences the establishment of a persistent infection.
as §2, with “Genomic DNA was stained with 10 µg/mL DAPI (Thermo Fisher Scientific) for 1 min and then washed twice with PBS for 10 min at 4 °C.” left out
Inclusions were quantified using CellProfiler 4.0.6. […]

HEp-2 cells [3] = assay: Cytotoxicity toward HEp-2 cells, resazurin-based alamarBlue viability assay; conditions: 28 h incubation, normalized to DMSO, non-linear regression from mean of two independent experiments, highest concentration tested 128 µg/mL
Procedure: (§3) Cytotoxicity of the compounds toward HEp-2 cells was assessed using the resazurin-based alamarBlue cell viability reagent (Thermo Fisher Scientific, Waltham, MA, USA). 5 × 10^4 HEp-2 cells/mL were seeded into flat base TC-96-well plates (Sarstedt, Nümbrecht, Germany) and incubated at 37 °C and 5% (v/v) CO2. After 48 h, the cells were washed with medium, followed by the addition of compounds in a serial dilution ranging from 128 µg/mL to 1 µg/mL for another 28 h. Next, the cells were washed twice with Hank’s balanced salt solution (HBSS) and incubated with the alamarBlue cell viability reagent diluted 1:10 in HBSS for 1 h. The conversion of resazurin into resorufin by viable cells was determined by transferring the supernatant into black 96-well plates (Greiner Bio-One, Frickenhausen, Germany) and measuring the fluorescence at 550 nm excitation and 595 nm emission wavelengths using a Tecan infinite M200 plate reader and Tecan SparkControl software v3.2 (Tecan Group, Männedorf, Switzerland). HEp-2 cell viability was normalized to the vehicle control, and the cytotoxic concentration 50% (CC50) was calculated by non-linear regression using GraphPad Prism v10.1.2 (GraphPad Software, San Diego, CA, USA).

[4] = test system: Wolbachia strain B of A. albopictus; assay: Quantification (depletion) of Wolbachia by qPCR, 16S rDNA/actin B ratio; type: cell-based, Wolbachia strain B of Aedes albopictus; conditions: 4 µg/mL, 9 days, C6/36 cells, positive control
Procedure: (a) A. albopictus C6/36 cells infected with Wolbachia strain B of A. albopictus were cultured for 9 days with or without the compounds at varying concentrations. […] (c) The depletion of Wolbachia from infected and treated C6/36 cells was measured after 9 days by extracting genomic DNA and measuring the ratio of Wolbachia 16S rDNA and A. albopictus actin B by qPCR; the median ± interquartile range from three experiments is shown.
Susceptibility of Wolbachia toward different compounds was tested as described [32, 53]. In short, 1 × 10^4 cells/well of A. albopictus C6/36 infected with Wolbachia were cultured in supplemented medium in 96-well plates with or without compound at 26 °C for 9 days. The medium, with and without compound, was exchanged every third day, and the cells were harvested on day 9 for the extraction of genomic DNA using the QIAamp Kit (Qiagen, Hilden, Germany) according to the manufacturer’s protocol. Wolbachia were quantified by qPCR of the 16S rDNA gene of Wolbachia (GenBank accession No. X61767) and the actin B gene of A. albopictus (GenBank accession no. DQ657949) as described [32, 91]. A plasmid containing the appropriate insert was used to generate a standard curve to determine the copy number of the genes. The abundance of Wolbachia was normalized by calculating the ratio of 16S rDNA copies/µL to actin B copies/µL.

C. trachomatis serovar D = C. trachomatis serovar D in cell culture; cited from earlier work
Procedure: The tested compounds were applied to C. trachomatis-infected cells at an early stage of the chlamydial developmental cycle (Figure 1a), before the bacteria started replicating. During the early treatment with MRY D2, the majority of muraymycin derivatives and cCPZ had MICs between 16 µg/mL for cCPZ and 128 µg/mL for MRY D2 (Figure 1d). These MICs were relatively high compared with the MICs of the first-choice antibiotics against uncomplicated chlamydial genital infections, DOX and AZI, which have MICs of <1 µg/mL against C. trachomatis serovar D in cell culture. All der ...

HEp-2 cells [5] = test system: HEp-2 cells
Procedure: as §3

[6] = 128 µg/mL MRY D2 alone added at 12 hpi

For `CC(C)C[C@H](NC(=O)[C@@H](NC(=O)N[C@H](C(=O)O)C(C)C)[C@@H]1CCN=C(N)N1)C(=O)NCCCN[C@H](C(=O)O)[C@H](O[C@@H]1O[C@H](CN)[C@@H](O)[C@H]1O)[C@H]1O[C@@H](n2ccc(=O)[nH]c2=O)[C@H](O)[C@@H]1O` [MRY D2, Muraymycin D2], the MIC (C. trachomatis D/UW-3/CX [1]) was 128 µg/mL (≈ 140 µM), the “Inhibition of lipid I formation by recombinant MraYCpn” value (C. pneumoniae MraY) was “completely abolished enzymatic activity” and the “Relative number of inclusions containing EBs/RBs” value (C. trachomatis D/UW-3/CX [2]; [6]) was 83%. For the same molecule, the “Relative number of inclusions containing a mixed phenotype (EBs/RBs/ABs)” value (C. trachomatis D/UW-3/CX [2]; [6]) was 8%, the “Phenotype on simultaneous treatment with PEN G” value (C. trachomatis D/UW-3/CX [2]; 128 µg/mL MRY D2 and 100 U/mL PEN G added simultaneously at 2 hpi) was “inclusions filled with ABs were visible as for PEN G alone” and the “Fewer inclusions (reduction in inclusion number)” value (C. trachomatis D/UW-3/CX [2]; active infection: 128 µg/mL MRY D2 alone added at 12 hpi) was 75%. For the same molecule, the “Reduction of the inclusion quantity” value (C. trachomatis D/UW-3/CX [2]; established persistent infection: 100 U/mL PEN G at 2 hpi, then 128 µg/mL MRY D2 at 12 hpi, vs PEN G only) was 70% and the CC50 (HEp-2 cells [3]) was > 128 µg/mL.

In the case of `C[C@H]1c2cccc(O)c2C(=O)C2=C(O)[C@]3(O)C(=O)C(C(N)=O)=C(O)[C@@H](N(C)C)[C@@H]3[C@@H](O)[C@@H]21` [DOX, doxycycline], the “Depletion of Wolbachia (16S rDNA/actin B by qPCR)” value [4] is given as “nearly completely depleted” and the MIC (C. trachomatis serovar D) is given as < 1 µg/mL.

In the case of `CC1(C)S[C@@H]2[C@H](NC(=O)Cc3ccccc3)C(=O)N2[C@H]1C(=O)O` [PEN, penicillin, reference compound], the “Effect on C. trachomatis infection (phenotype)” value (C. trachomatis D/UW-3/CX [1]; 100 U/mL) is reported as “induced persistence visible as enlarged, aberrant bodies”.

In the case of `CC[C@H]1OC(=O)[C@H](C)[C@@H](O[C@H]2C[C@@](C)(OC)[C@@H](O)[C@H](C)O2)[C@H](C)[C@@H](O[C@@H]2O[C@H](C)C[C@H](N(C)C)[C@H]2O)[C@](C)(O)C[C@@H](C)CN(C)[C@H](C)[C@@H](O)[C@]1(C)O` [AZI, azithromycin], the MIC (C. trachomatis serovar D) is given as < 1 µg/mL.

For `O=C(O)c1cn(C2CC2)c2cc(N3CCNCC3)c(F)cc2c1=O` [CIP, ciprofloxacin, reference compound], the “Effect on C. trachomatis infection (phenotype)” value (C. trachomatis D/UW-3/CX [1]; 0.5 µg/mL) was “bactericidal”.

In the case of `CCCCCCCCCCCCCCCCC[C@H]1CN(C)[C@@H]([C@H](O[C@@H]2O[C@H](CN)[C@@H](O)[C@H]2O)[C@H]2O[C@@H](n3ccc(=O)[nH]c3=O)[C@H](O)[C@@H]2O)C(=O)N(C)[C@@H]1C(=O)O` [cCPZ, carbacaprazamycin], the MIC (C. trachomatis D/UW-3/CX [1]) is reported as 16 µg/mL (≈ 20.1 µM) and the CC50 (HEp-2 cells [5]) is reported as 124 µg/mL (≈ 155 µM).
